These results are taken from patent US8618303B2, “Pyrrolidine derivatives” (Hoffmann-La Roche Inc., priority 2011, dated 2013).

Usually Ki stands for the dissociation constant of the complex between target and ligand, obtained from inhibition or displacement.

One experiment deals with human NK3 receptor (Homo sapiens (Human), UniProt P29371). Description: [3H]SR142801 competition binding assay.
Chain of human NK3 receptor (P29371 whole entry): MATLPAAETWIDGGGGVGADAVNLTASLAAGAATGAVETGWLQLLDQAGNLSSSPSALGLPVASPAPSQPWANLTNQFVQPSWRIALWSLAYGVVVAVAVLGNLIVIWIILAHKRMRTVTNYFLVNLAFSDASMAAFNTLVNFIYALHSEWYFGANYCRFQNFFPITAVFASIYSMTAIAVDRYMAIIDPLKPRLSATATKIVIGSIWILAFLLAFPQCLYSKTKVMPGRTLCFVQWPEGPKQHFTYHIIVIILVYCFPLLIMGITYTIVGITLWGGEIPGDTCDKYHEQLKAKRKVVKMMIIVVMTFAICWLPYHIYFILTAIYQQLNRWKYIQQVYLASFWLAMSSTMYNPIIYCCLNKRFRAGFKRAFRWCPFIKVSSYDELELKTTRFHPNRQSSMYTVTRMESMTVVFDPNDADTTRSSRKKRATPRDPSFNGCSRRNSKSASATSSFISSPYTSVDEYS
Conditions: not given
The protocol:
hNK3 receptor binding experiment were performed using [^3H]SR142801 (Catalog No. TRK1035, specific activity: 74.0 Ci/mmol, Amersham, GE Healthcare UK limited, Buckinghamshire, UK) and membrane isolated from HEK293 cells transiently expressing recombinant human NK3 receptor. After thawing, the membrane homogenates were centrifuged at 48,000×g for 10 min at 4° C., the pellets were resuspended in the 50 mM Tris-HCl, 4 mM MnCl2, 1 μM phosphoramidon, 0.1% BSA binding buffer at pH 7.4 to a final assay concentration of 5 μg protein/well. […] At the end of the incubation, membranes were filtered onto unitfilter (96-well white microplate with bonded GF/C filter preincubated 1 h in 0.3% PEI+0.3% BSA, Packard BioScience, Meriden, Conn.) with a Filtermate 196 harvester (Packard BioScience) and washed 4 times with ice-cold 50 mM Tris-HCl, pH 7.4 buffer. Nonspecific binding was measured in the presence of 10μM SB222200 for both radioligands. The radioactivity on the filter was counted (5 min) on a Packard Top-count microplate scintillation counter with quenching correction after addition of 45 μl of microscint 40 (Canberra Packard S.A., Ziirich, Switzerland) and shaking for 1 h. Inhibition curves were fitted according to the Hill equation: y=100/(1+(x/IC50), where nH=slope factor using Excel-fit 4 software (Microsoft). IC50 values were derived from the inhibition curve and the affinity constant (Ki) values were calculated using the Cheng-Prussoff equation Ki =IC50/(1+[L]/KD) where [L] is the concentration of radioligand and KD is its dissociation constant at the receptor, derived from the saturation isotherm. All experiments were performed in duplicate and the mean±standard error (SEM) of the individual Ki values was calculated.
`CN(C(=O)Oc1ccc(F)cc1)[C@@]1(C)CN(C(=O)C2CCN(C3CCCCC3)CC2)C[C@@H]1c1ccc(Cl)cc1` (racemic) [Example 2, rac-[(3R,4S)-4-(4-Chloro-phenyl)-1-(1-cyclohexyl-piperidine-4-carbonyl)-3-methyl-pyrrolidin-3-yl]-methyl-carbamic acid 4-fluoro-phenyl ester] displayed a Ki of 0.0201 µM.

For `CN(C(=O)Oc1ccc(F)cc1)[C@@]1(C)CN(C(=O)C2CCN(c3ccc(C#N)cn3)CC2)C[C@@H]1c1ccc(Cl)cc1` (racemic) [Example 9, rac-[(3R,4S)-4-(4-Chloro-phenyl)-1-(5′-cyano-3,4,5,6-tetrahydro-2H-[1,2′]bipyridinyl-4-carbonyl)-3-methyl-pyrrolidin-3-yl]-methyl-carbamic acid 4-fluoro-phenyl ester], affinity was put at a Ki of 0.0021 µM. `CN(C(=O)Oc1ccc(F)cc1)[C@@H]1CN(C(=O)C2CCN(c3ccc(F)cn3)CC2)C[C@@]1(C)c1ccc(Cl)cc1` (racemic) [Example 23, rac-[(3S,4R)-4-(4-Chloro-phenyl)-1-(5′-fluoro-3,4,5,6-tetrahydro-2H-[1,2′]bipyridinyl-4-carbonyl)-4-methyl-pyrrolidin-3-yl]-methyl-carbamic acid 4-fluoro-phenyl ester] had a Ki of 0.0435 µM. On the same count and under the same terms, the figure for `CN(C(=O)Oc1ccc(F)cc1)[C@@]1(C)CN(C(=O)c2ccc(-c3ccc(F)cc3)cc2)C[C@@H]1c1ccc(Cl)cc1` (racemic) [Example 16, rac-[(3R,4S)-4-(4-Chloro-phenyl)-1-(4′-fluoro-biphenyl-4-carbonyl)-3-methyl-pyrrolidin-3-yl]-methyl-carbamic acid 4-fluoro-phenyl ester] is 0.3 µM; for `CN(C(=O)Oc1ccc(F)cc1)[C@@H]1CN(C(=O)C2CCN(C3CCCCC3)CC2)C[C@@]1(C)c1ccc(Cl)cc1` [Example 25, [(3S,4R)-4-(4-Chloro-phenyl)-1-(1-cyclohexyl-piperidine-4-carbonyl)-4-methyl-pyrrolidin-3-yl]-methyl-carbamic acid 4-fluoro-phenyl ester] it is 0.0915 µM.

The experiment is the same for the next values; noted with them: membranes from HEK293 cells transiently expressing recombinant human NK3 receptor; [3H]SR142801; Ki from IC50 by Cheng-Prussoff; read-out: Ki (uM) hNK3.
Regarding `CN(C(=O)Oc1ccc(F)cc1)[C@@]1(C)CN(C(=O)C2CCN(c3ccc(C#N)nc3)CC2)C[C@@H]1c1ccc(Cl)cc1` (racemic) [Example 18, rac-[(3R,4S)-4-(4-Chloro-phenyl)-1-(6′-cyano-3,4,5,6-tetrahydro-2H-[1,3′]bipyridinyl-4-carbonyl)-3-methyl-pyrrolidin-3-yl]-methyl-carbamic acid 4-fluoro-phenyl ester], the inhibition constant (Ki) turned out to be 0.0028 µM.

Turning to `Cc1nc(-c2ccc(C(=O)N3C[C@H](c4ccc(Cl)cc4)[C@@](C)(N(C)C(=O)Oc4ccc(F)cc4)C3)cc2)no1` (racemic) [Example 17, rac-{(3R,4S)-4-(4-Chloro-phenyl)-3-methyl-1-[4-(5-methyl-[1,2,4]oxadiazol-3-yl)-benzoyl]-pyrrolidin-3-yl}-methyl-carbamic acid 4-fluoro-phenyl ester], the Ki was 0.0354 µM. As to `CN(C(=O)Oc1ccc(F)cc1)[C@@]1(C)CN(C(=O)C2CCN(c3ccc(C#N)cc3)CC2)C[C@@H]1c1ccc(Cl)cc1` (racemic) [Example 10, rac-{(3R,4S)-4-(4-Chloro-phenyl)-1-[1-(4-cyano-phenyl)-piperidine-4-carbonyl]-3-methyl-pyrrolidin-3-yl}-methyl-carbamic acid 4-fluoro-phenyl ester], the Ki was determined as 0.0038 µM. For the molecule `CN(C(=O)Oc1ccc(F)cc1)[C@@]1(C)CN(C(=O)C2CCN(c3ccc(C(F)(F)F)cn3)CC2)C[C@@H]1c1ccc(Cl)cc1` (racemic) [Example 15, rac-[(3R,4S)-4-(4-Chloro-phenyl)-3-methyl-1-(5′-trifluoromethyl-3,4,5,6-tetrahydro-2H-[1,2′]bipyridinyl-4-carbonyl)-pyrrolidin-3-yl]-methyl-carbamic acid 4-fluoro-phenyl ester], the Ki turned out to be 0.0115 µM. Regarding `CN(C(=O)Oc1ccc(F)cc1)[C@@H]1CN(C(=O)c2ccc(C#N)cc2)C[C@@]1(C)c1ccc(Cl)cc1` (racemic) [Example 26, rac-[(3S,4R)-4-(4-Chloro-phenyl)-1-(4-cyano-benzoyl)-4-methyl-pyrrolidin-3-yl]-methyl-carbamic acid 4-fluoro-phenyl ester], the Ki came out at 0.629 µM. As to `CC(=O)c1ccc(N2CCC(C(=O)N3C[C@H](c4ccc(Cl)cc4)[C@@](C)(N(C)C(=O)Oc4ccc(F)cc4)C3)CC2)nc1` (racemic) [Example 11, rac-[(3R,4S)-1-(5′-Acetyl-3,4,5,6-tetrahydro-2H-[1,2′]bipyridinyl-4-carbonyl)-4-(4-chloro-phenyl)-3-methyl-pyrrolidin-3-yl]-methyl-carbamic acid 4-fluoro-phenyl ester], the Ki came out at 0.0045 µM. Take `CN(C(=O)Oc1ccc(F)cc1)[C@@H]1CN(C(=O)c2ccc(N3CCCCC3=O)cc2)C[C@@]1(C)c1ccc(Cl)cc1` (racemic) [Example 36, rac-{(3S,4R)-4-(4-Chloro-phenyl)-4-methyl-1-[4-(2-oxo-piperidin-1-yl)-benzoyl]-pyrrolidin-3-yl}-methyl-carbamic acid 4-fluoro-phenyl ester]: the Ki was 0.997 µM.

`CN(C(=O)Oc1ccc(F)cc1)[C@@]1(C)CN(C(=O)C2CCN(c3ccc(Cl)cn3)CC2)C[C@@H]1c1ccc(Cl)cc1` (racemic) [Example 13, rac-[(3R,4S)-4-(4-Chloro-phenyl)-1-(5′-chloro-3,4,5,6-tetrahydro-2H-[1,2′]bipyridinyl-4-carbonyl)-3-methyl-pyrrolidin-3-yl]-methyl-carbamic acid 4-fluoro-phenyl ester]: the Ki worked out at 0.01 µM.

Consider `Cc1cc(C(=O)N2C[C@H](c3ccc(Cl)cc3)[C@@](C)(N(C)C(=O)Oc3ccc(F)cc3)C2)cnn1` (racemic) [Example 6, rac-[(3R,4S)-4-(4-Chloro-phenyl)-3-methyl-1-(6-methyl-pyridazine-4-carbonyl)-pyrrolidin-3-yl]-methyl-carbamic acid 4-fluoro-phenyl ester], for which the Ki turned out to be 0.0649 µM. For the molecule `CN(C(=O)Oc1ccc(F)cc1)[C@@]1(C)CN(C(=O)c2ccc(N3CCCCC3=O)cc2)C[C@@H]1c1ccc(Cl)cc1` (racemic) [Example 20, rac-{(3R,4S)-4-(4-Chloro-phenyl)-3-methyl-1-[4-(2-oxo-piperidin-1-yl)-benzoyl]-pyrrolidin-3-yl}-methyl-carbamic acid 4-fluoro-phenyl ester], the Ki came out at 0.276 µM. In the case of `CC(C)C(=O)N1CCC(C(=O)N2C[C@H](c3ccc(Cl)cc3)[C@@](C)(N(C)C(=O)Oc3ccc(F)cc3)C2)CC1` (racemic) [Example 1, rac-[(3R,4S)-4-(4-Chloro-phenyl)-1-(1-isobutyryl-piperidine-4-carbonyl)-3-methyl-pyrrolidin-3-yl]-methyl-carbamic acid 4-fluoro-phenyl ester], the Ki was determined as 0.0105 µM. The same measure, in the same setting: the figure for `CN(C(=O)Oc1ccc(F)cc1)[C@@]1(C)CN(C(=O)c2ccc(C#N)nc2)C[C@@H]1c1ccc(Cl)cc1` (racemic) [Example 14, rac-[(3R,4S)-4-(4-Chloro-phenyl)-1-(6-cyano-pyridine-3-carbonyl)-3-methyl-pyrrolidin-3-yl]-methyl-carbamic acid 4-fluoro-phenyl ester] is 0.0774 µM.
